Broadly, the IC50 is the midpoint of a concentration-inhibition curve.

The text below walks through data of ChEMBL document CHEMBL1130376, “Effects of taxoids from Taxus cuspidata on microtubule depolymerization and vincristine accumulation in MDR cells” (Bioorg Med Chem Lett, 1997).

≈ marks a conversion by molar mass, not a printed value.

A short description of assay [1]: Cytotoxicity against human epidermoid carcinoma KB cells. The assay is classed as functional, cell-based.
The test system of another assay is L1210. Briefly: Cytotoxicity against murine leukemia L1210 cells. The assay is classed as functional, cell-based, Mus musculus. As to conditions: Mus musculus, L1210; read-out: IC50.
Assay [2] is described as follows: Vincristine (VCR) accumulation in multidrug resistant human ovarian cancer 2780 AD cells at a concentration 1 ug/mL. The assay is classed as functional.
Assay [3] in a line: Vincristine (VCR) accumulation in multidrug resistant human ovarian cancer 2780 AD cells at a concentration 10 ug/mL. The assay is classed as functional.
Assay [4] deals with Tubulin alpha chain (Sus scrofa) (UniProt P02550). Briefly: Tested for inhibitory concentration against […]-induced depolymerization of microtubules. The assay is classed as functional.
Tubulin alpha chain (Sus scrofa), sequence (P02550 whole entry, looked up): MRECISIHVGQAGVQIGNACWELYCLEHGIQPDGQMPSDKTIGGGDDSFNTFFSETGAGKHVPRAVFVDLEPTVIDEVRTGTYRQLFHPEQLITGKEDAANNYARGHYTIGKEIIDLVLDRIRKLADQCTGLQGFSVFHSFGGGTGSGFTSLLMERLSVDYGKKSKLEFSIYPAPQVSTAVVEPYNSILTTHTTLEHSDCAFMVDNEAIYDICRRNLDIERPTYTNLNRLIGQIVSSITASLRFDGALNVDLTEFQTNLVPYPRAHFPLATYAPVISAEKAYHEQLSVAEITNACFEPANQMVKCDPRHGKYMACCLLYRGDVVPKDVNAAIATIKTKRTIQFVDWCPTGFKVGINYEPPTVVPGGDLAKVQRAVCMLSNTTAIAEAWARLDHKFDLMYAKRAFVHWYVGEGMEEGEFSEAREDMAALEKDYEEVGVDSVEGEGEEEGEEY

As to `C=C1[C@@H](OC(=O)/C=C/c2ccccc2)C[C@H](OC(C)=O)[C@@]2(C)[C@@H](OC(C)=O)[C@H](OC(C)=O)[C@@]3(O)C(C)=C(OC(C)=O)C[C@@H]([C@@H](OC(C)=O)[C@H]12)C3(C)C`, the figures for the IC50 (in assay [1]; in the assay on L1210) were 1.8 µg/mL (≈ 2.48 µM) and 3 µg/mL (≈ 4.14 µM), respectively. The “vincristine accumulation (% of control)” value in assay [2] is recorded as 133%; in assay [3], 325%.

In the case of `C=C1[C@@H](OC(=O)/C=C/c2ccccc2)C[C@H](OC(C)=O)[C@@]2(CO)[C@@H](OC(C)=O)[C@H](OC(C)=O)[C@]3(O)[C@@]4(C)CO[C@]3(C)C(=O)C[C@H]4[C@@H](OC(C)=O)[C@H]12` [TAXUSPINE S], the IC50 in assay [1] stood at 0.26 µg/mL (≈ 0.365 µM); in the assay on L1210, 3.8 µg/mL (≈ 5.33 µM). Further, the “vincristine accumulation (% of control)” value in assay [2] was 136%; in assay [3] it was 190%.

For `C=C1[C@@H](O)C[C@H](OC(C)=O)[C@@]2(C)[C@@H](OC(C)=O)[C@H](OC(C)=O)C3=C(C)C(=O)C[C@@H]([C@@H](OC(C)=O)[C@H]12)C3(C)C`, the IC50 (in assay [1]; in the assay on L1210) was > 10 µg/mL in each case. Also, the “vincristine accumulation (% of control)” value was 141% in assay [2] and 257% in assay [3].

For the compound `C=C1[C@@H](OC(=O)/C=C/c2ccccc2)C[C@H](OC(C)=O)[C@@]2(C)[C@@H](OC(C)=O)[C@H](OC(C)=O)[C@]3(O)[C@@]4(C)CO[C@]3(C)C(=O)C[C@H]4[C@@H](OC(C)=O)[C@H]12` [TAXAGIFINE], the figures for the IC50 (in assay [1]; with L1210) were 0.86 µg/mL (≈ 1.23 µM) and 1.3 µg/mL (≈ 1.87 µM), respectively. Moreover, the “vincristine accumulation (% of control)” value in assay [2] came to 194%; in assay [3] it was 242%.

With `CC(=O)O[C@H]1C[C@@]2(O)[C@@H](OC(C)=O)[C@@H]3[C@@]4(CO4)[C@@H](OC(C)=O)C[C@H](OC(C)=O)[C@@]3(C)[C@@H](OC(C)=O)[C@H](OC(C)=O)C(=C1C)C2(C)C`, the 50% inhibitory concentration (IC50) (in assay [1]; in the assay on L1210) was > 10 µg/mL each time. The “vincristine accumulation (% of control)” value in assay [2] stood at 119%; in assay [3], 135%.

Take `C=C1[C@@H](OC(=O)CC(c2ccccc2)N(C)C)CC[C@]2(C)[C@@H]1C[C@@H]1C[C@H](OC(C)=O)C(C)=C([C@@H](OC(C)=O)[C@@H]2OC(C)=O)C1(C)C` (stereo partly specified): the IC50 (in assay [1]; in the assay with L1210) was > 10 µg/mL in each case. Also, the figures for the “vincristine accumulation (% of control)” value in assay [2] and in assay [3] were 250% and 882%, respectively.

`CC(=O)O[C@H]1C(=O)[C@@]2(C)[C@H]([C@H](OC(=O)c3ccccc3)[C@]3(O)C[C@H](OC(=O)[C@H](O)C(NC(=O)C4CCC4)c4ccccc4)C(C)=C1C3(C)C)[C@]1(OC(C)=O)CO[C@@H]1C[C@@H]2O` (stereo partly specified): the IC50 in assay [1] worked out at 0.086 µg/mL (≈ 0.103 µM); with L1210, 0.25 µg/mL (≈ 0.301 µM). Also, the entries for the “vincristine accumulation (% of control)” value in assay [2] and in assay [3] were 88% and 93%, respectively.

As to `C=C1[C@@H](O)CC[C@@]2(C)[C@@H](OC(C)=O)[C@H](OC(C)=O)C3=C(C)C(=O)C[C@@H]([C@@H](OC(C)=O)[C@H]12)C3(C)C` [TAXININE A], the 50% inhibitory concentration (IC50) in assay [1] was > 10 µg/mL; with L1210 it was 8.9 µg/mL (≈ 18.7 µM). The “vincristine accumulation (% of control)” value in assay [2] was found to be 153%; in assay [3] it was 461%.

For the compound `C=C1[C@@H](O)CC[C@@]2(C)[C@@H](OC(C)=O)[C@H](OC(C)=O)C3=C(C)C(=O)C[C@@H]([C@@H](O)[C@H]12)C3(C)C`, the IC50 (in assay [1]; with L1210) was > 10 µg/mL in each case. Further, the “vincristine accumulation (% of control)” value in assay [2] is 139%; in assay [3], 271%.

With `C=C1[C@@H](OC(=O)CC(c2ccccc2)N(C)C)CC[C@@]2(C)[C@@H](OC(C)=O)[C@H](OC(C)=O)[C@@]34[C@H](C)C(=O)C[C@@H]([C@@H](OC(C)=O)C132)C4(C)C` (stereo partly specified), the IC50 was 1.6 µg/mL (≈ 2.45 µM) in assay [1] and > 10 µg/mL with L1210. The entries for the “vincristine accumulation (% of control)” value in assay [2] and in assay [3] were 174% and 567%, respectively.

`C=C1[C@@H](OC(=O)/C=C/c2ccccc2)C[C@H](OC(C)=O)[C@]2(C)[C@@H]1C[C@]1(C(C)(C)O)C[C@H](OC(C)=O)C(C)=C1[C@@H](O)[C@@H]2OC(C)=O`: the results for the IC50 (in assay [1]; in the assay with L1210) were 5.8 µg/mL (≈ 9.28 µM) and 1.2 µg/mL (≈ 1.92 µM), respectively. Also, the “vincristine accumulation (% of control)” value was 176% in assay [2] and 584% in assay [3].

Regarding `C=C1[C@@H](O)CC[C@@]2(C)[C@@H](OC(C)=O)[C@H](OC(C)=O)C3=C(C)C(=O)C[C@@](O)([C@@H](OC(C)=O)[C@H]12)C3(C)C`, the half-maximal inhibitory concentration (IC50) in assay [1] is 0.6 µg/mL (≈ 1.22 µM); in the assay with L1210, 6.2 µg/mL (≈ 12.6 µM). For the same compound, the “vincristine accumulation (% of control)” value in assay [2] was found to be 152%; in assay [3] it was 216%.

Regarding `C=C1[C@@H](O)C[C@H](OC(C)=O)[C@@]2(C)[C@@H](OC(C)=O)[C@H](OC(=O)c3ccccc3)C3=C(C)[C@@H](OC(C)=O)C[C@@]3(C(C)(C)O)[C@@H](OC(C)=O)[C@H]12`, the half-maximal inhibitory concentration (IC50) (in assay [1]; with L1210) was > 10 µg/mL throughout. Further, the “vincristine accumulation (% of control)” value in assay [2] was determined as 158%; in assay [3], 313%.

`C=C1[C@@H](OC(=O)/C=C/c2ccccc2)CC[C@@]2(C)[C@@H](OC(C)=O)[C@H](OC(C)=O)C3=C(C)C(=O)C[C@@H]([C@@H](OC(C)=O)[C@H]12)C3(C)C`: the 50% inhibitory concentration (IC50) (in assay [1]; in the assay with L1210) was > 10 µg/mL each time. Moreover, the results for the “vincristine accumulation (% of control)” value in assay [2] and in assay [3] were 195% and 571%, respectively.

As to `CC(=O)O[C@H]1C(=O)[C@@]2(C)[C@H]([C@H](OC(=O)c3ccccc3)[C@]3(O)C[C@H](OC(=O)[C@H](O)[C@@H](NC(=O)c4ccccc4)c4ccccc4)C(C)=C1C3(C)C)[C@]1(OC(C)=O)CO[C@@H]1C[C@@H]2O`, the Concentration in assay [4] worked out at 10 µM.

Turning to `C=C1[C@@H](O)C[C@H](OC(C)=O)[C@@]2(C)[C@@H](OC(C)=O)[C@H](OC(=O)c3ccccc3)C3=C(C)[C@@H](O)C[C@@]3(C(C)(C)O)[C@@H](OC(C)=O)[C@H]12` [TAXCHININ A], the values for the IC50 (in assay [1]; in the assay on L1210) were 0.4 µg/mL (≈ 0.651 µM) and > 10 µg/mL, respectively. Besides, the entries for the “vincristine accumulation (% of control)” value in assay [2] and in assay [3] were 143% and 192%, respectively.

As to `C=C1[C@@H](OC(=O)/C=C/c2ccccc2)C[C@H](OC(C)=O)[C@@]2(COC(=O)c3ccccc3)[C@@H](OC(C)=O)[C@H](OC(C)=O)[C@]3(O)[C@@]4(C)CO[C@]3(C)C(=O)C[C@H]4[C@@H](OC(C)=O)[C@H]12`, the IC50 (in assay [1]; in the assay on L1210) was > 10 µg/mL in each case. For the same compound, the “vincristine accumulation (% of control)” value in assay [2] amounted to 169%; in assay [3] it was 537%.

As for `C=C1[C@@H](O)C[C@H](OC(C)=O)[C@@]2(COC(=O)c3ccccc3)[C@@H](OC(C)=O)[C@H](OC(C)=O)[C@]3(O)[C@@]4(C)CO[C@]3(C)C(=O)C[C@H]4[C@@H](OC(C)=O)[C@H]12` [TAXININ M], the IC50 in assay [1] was 9.4 µg/mL (≈ 13.7 µM); in the assay on L1210, > 10 µg/mL. The “vincristine accumulation (% of control)” value is 115% in assay [2] and 169% in assay [3].

For the compound `CC(=O)O[C@H]1C[C@H]2[C@@H](OC(C)=O)/C=C3\C[C@](C)(C(=O)[C@H](O)C(=C1C)C2(C)C)[C@@H](OC(C)=O)C[C@@H]3OC(=O)/C=C/c1ccccc1` [TAXUSPINE B], the half-inhibitory concentration (IC50) (in assay [1]; with L1210) was > 10 µg/mL in each case. The figures for the “vincristine accumulation (% of control)” value in assay [2] and in assay [3] were 219% and 713%, respectively.

As for `C=C1[C@@H](OC(=O)/C=C/c2ccccc2)CC[C@@]2(C)[C@@H](OC(C)=O)[C@H](OC(C)=O)[C@@]34[C@H](C)C(=O)C[C@@H]([C@@H](OC(C)=O)C132)C4(C)C` (stereo partly specified), the IC50 was > 10 µg/mL in assay [1] and 5.8 µg/mL (≈ 9.56 µM) with L1210. For the same compound, the “vincristine accumulation (% of control)” value was 246% in assay [2] and 768% in assay [3].

Take `C=C1[C@@H](OC(=O)/C=C/c2ccccc2)C[C@H](OC(C)=O)[C@@]2(C)[C@@H](OC(C)=O)[C@H](OC(C)=O)C3=C(C)C(=O)C[C@@H]([C@@H](OC(C)=O)[C@H]12)C3(C)C`: the 50% inhibitory concentration (IC50) (in assay [1]; in the assay on L1210) was > 10 µg/mL throughout. Also, the “vincristine accumulation (% of control)” value in assay [2] stood at 116%; in assay [3], 438%.
